Literature values as cited in US20230270851A1, “METHODS FOR THE TREATMENT OF IDIOPATHIC ORBITAL INFLAMMATION AND RELATED CONDITIONS” (HORIZON THERAPEUTICS IRELAND DAC, priority 2020, published 2023).

What was measured:
[1] = test system: tumors; conditions: in vivo; cited from earlier work
[2] = cited from earlier work
[3] = molecular target: IGF-1R (Homo sapiens, UniProt P08069); conditions: A-928605: purified enzyme; INSM-18: receptor activation; cited from earlier work
[4] = test system: susceptible tumor cell populations; conditions: cited from earlier work
[5] = molecular target: c-erbB2/HER2/neu receptor (Homo sapiens, UniProt P04626); conditions: cited from earlier work
Chain of c-erbB2/HER2/neu receptor (P04626 23-1255): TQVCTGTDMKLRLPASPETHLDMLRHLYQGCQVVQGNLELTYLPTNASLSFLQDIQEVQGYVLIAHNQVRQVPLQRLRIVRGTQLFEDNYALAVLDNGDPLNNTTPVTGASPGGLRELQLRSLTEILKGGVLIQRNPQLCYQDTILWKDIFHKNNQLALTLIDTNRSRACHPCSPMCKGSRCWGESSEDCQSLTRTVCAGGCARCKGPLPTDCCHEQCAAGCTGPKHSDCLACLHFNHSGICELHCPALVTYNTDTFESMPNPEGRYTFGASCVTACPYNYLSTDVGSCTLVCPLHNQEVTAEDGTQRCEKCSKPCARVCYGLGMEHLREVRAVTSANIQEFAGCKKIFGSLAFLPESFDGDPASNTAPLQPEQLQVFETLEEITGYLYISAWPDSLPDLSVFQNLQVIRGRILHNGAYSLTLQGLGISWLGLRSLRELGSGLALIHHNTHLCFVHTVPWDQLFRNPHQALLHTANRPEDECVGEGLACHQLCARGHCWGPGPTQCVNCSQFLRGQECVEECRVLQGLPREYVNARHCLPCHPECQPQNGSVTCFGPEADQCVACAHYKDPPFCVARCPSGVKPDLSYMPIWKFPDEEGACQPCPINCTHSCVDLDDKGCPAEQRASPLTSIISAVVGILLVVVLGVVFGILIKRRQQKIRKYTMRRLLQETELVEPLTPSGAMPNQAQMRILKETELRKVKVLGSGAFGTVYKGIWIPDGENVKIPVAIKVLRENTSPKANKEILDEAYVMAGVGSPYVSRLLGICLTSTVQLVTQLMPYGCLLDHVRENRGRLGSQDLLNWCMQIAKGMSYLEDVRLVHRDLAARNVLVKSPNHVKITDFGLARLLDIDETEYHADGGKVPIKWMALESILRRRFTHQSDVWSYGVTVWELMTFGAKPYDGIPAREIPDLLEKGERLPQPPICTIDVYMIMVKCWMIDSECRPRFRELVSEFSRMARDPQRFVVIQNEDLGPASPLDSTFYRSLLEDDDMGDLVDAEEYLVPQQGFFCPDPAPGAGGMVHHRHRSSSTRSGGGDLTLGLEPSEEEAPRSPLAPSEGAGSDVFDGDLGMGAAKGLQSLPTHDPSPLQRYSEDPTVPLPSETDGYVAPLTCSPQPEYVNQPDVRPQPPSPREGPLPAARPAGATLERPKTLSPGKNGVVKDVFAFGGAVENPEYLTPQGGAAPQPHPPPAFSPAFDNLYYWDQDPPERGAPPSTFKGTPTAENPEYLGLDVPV

[6] = test system: neuroblastoma; conditions: cited from earlier work
[7] = molecular target: ALK (Homo sapiens, UniProt Q9UM73); conditions: cited from earlier work
Chain of ALK (Q9UM73 19-1620, species assumed): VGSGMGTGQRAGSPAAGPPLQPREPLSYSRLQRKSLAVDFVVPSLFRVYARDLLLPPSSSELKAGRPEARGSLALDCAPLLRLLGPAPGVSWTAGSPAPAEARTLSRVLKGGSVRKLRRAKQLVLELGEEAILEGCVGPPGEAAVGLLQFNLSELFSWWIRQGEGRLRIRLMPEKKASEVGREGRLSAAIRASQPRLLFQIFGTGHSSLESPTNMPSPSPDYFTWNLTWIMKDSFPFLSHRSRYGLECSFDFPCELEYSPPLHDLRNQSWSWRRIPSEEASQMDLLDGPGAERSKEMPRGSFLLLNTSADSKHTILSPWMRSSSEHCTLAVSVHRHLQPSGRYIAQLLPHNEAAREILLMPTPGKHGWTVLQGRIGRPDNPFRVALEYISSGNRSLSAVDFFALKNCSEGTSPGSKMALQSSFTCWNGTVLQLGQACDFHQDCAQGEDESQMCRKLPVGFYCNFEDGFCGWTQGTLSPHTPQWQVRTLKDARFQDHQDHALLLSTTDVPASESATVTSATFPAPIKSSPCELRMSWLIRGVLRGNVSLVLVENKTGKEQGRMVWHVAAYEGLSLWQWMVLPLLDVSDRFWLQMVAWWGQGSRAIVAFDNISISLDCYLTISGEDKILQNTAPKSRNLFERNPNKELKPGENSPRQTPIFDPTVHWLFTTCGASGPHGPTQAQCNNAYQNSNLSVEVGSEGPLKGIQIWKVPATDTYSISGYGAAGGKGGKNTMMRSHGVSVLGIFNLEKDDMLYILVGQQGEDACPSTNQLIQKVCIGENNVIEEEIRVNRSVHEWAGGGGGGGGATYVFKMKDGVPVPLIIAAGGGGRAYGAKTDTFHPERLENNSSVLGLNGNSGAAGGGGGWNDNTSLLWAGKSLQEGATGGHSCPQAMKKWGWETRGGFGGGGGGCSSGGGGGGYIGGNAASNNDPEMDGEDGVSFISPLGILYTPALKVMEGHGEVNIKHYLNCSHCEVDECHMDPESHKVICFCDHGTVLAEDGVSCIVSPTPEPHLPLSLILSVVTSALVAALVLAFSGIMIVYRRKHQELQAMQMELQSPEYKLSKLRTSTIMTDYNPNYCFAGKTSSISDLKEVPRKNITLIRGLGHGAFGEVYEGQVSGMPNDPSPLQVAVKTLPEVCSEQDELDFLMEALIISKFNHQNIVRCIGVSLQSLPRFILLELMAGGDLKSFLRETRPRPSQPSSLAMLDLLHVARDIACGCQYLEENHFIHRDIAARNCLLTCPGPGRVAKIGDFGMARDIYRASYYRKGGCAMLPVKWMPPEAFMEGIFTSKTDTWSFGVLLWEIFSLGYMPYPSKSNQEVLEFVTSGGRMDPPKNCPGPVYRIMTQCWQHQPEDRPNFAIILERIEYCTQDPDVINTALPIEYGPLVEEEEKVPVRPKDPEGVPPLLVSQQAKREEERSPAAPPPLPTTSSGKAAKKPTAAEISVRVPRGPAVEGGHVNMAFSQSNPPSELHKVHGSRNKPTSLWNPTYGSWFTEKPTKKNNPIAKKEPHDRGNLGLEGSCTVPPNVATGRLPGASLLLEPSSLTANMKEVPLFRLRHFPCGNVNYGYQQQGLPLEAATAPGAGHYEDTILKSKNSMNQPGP

[8] = molecular target: IGF-IR (Homo sapiens, UniProt P08069); conditions: cited from earlier work
Chain of IGF-IR (P08069 31-1367): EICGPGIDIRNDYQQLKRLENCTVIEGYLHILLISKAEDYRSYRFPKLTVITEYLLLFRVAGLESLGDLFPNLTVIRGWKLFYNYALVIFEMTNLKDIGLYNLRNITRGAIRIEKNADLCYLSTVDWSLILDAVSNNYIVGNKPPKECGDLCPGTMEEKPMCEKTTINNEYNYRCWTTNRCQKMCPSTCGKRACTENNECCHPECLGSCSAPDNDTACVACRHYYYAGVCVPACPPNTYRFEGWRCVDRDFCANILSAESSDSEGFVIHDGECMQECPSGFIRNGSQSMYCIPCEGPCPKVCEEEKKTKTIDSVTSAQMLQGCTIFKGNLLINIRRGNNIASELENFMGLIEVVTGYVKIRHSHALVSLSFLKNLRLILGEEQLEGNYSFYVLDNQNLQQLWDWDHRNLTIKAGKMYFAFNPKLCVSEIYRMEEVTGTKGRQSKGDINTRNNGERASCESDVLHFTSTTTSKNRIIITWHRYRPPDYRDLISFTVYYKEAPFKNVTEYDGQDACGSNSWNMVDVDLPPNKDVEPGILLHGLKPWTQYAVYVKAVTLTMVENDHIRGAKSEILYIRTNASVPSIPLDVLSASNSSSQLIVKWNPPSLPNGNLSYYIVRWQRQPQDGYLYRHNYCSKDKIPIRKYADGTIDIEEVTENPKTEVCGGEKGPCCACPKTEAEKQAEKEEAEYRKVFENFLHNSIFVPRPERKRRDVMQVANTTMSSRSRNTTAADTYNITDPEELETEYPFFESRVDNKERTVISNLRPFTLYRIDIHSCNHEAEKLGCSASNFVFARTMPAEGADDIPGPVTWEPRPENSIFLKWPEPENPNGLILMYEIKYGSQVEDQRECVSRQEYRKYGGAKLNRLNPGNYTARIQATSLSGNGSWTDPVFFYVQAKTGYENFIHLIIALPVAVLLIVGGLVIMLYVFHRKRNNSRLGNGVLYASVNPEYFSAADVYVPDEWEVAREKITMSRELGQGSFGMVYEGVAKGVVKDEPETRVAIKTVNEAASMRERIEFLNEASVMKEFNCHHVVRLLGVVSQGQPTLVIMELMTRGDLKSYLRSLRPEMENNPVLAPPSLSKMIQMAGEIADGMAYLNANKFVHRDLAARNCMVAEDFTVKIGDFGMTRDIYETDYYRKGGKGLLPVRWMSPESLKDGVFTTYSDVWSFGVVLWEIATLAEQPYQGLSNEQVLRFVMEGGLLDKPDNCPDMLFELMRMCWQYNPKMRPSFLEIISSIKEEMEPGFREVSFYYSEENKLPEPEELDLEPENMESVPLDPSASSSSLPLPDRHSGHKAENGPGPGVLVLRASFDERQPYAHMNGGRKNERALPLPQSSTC

[9] = test system: IGF-1 R-overexpressing tumor cells; conditions: cited from earlier work

Chain of IGF-1R (P08069 31-1367): as above

COCCN1CCN(CCn2ccc(Nc3ncc4c(n3)[C@@H](C)Cc3nn(C)c(-c5ccccc5)c3-4)n2)CC1 [BI885578]
apoptosis in tumors [1]: induction of apoptosis
cell proliferation in tumors [1]: inhibition of cell proliferation
in vivo half-life [2]: short
intestinal absorption ([2]; in vivo): rapid
metabolic clearance ([2]; in vivo): rapid

C[C@H](Cc1ccc(O)c(O)c1)[C@@H](C)Cc1ccc(O)c(O)c1 [INSM-18, nordihydroguaiaretic acid]
inhibition of IGF-1R [3]: directly inhibits activation
proliferation of susceptible tumor cell populations [4]: decreased proliferation
inhibition of activation of the c-erbB2/HER2/neu receptor [5]: directly inhibits activation

COc1cc(N2CCC(N)CC2)ccc1Nc1ncc(Cl)c(-c2c[nH]c3ccccc23)n1 [AZD3463]
inhibition of IGF-1R [3]: potent
apoptosis ([6]; neuroblastoma): inducing apoptosis
neuroblastoma growth ([6]; overcoming crizotinib resistance): inhibition of neuroblastoma growth
inhibition of ALK [7]: potent

Nc1ncnc2c1c(-c1ccc3[nH]c(Cc4ccccc4Cl)nc3c1)nn2[C@H]1CC[C@H](N2CCOCC2)CC1 [Example A-928605]
inhibition of IGF-1R [3]: potent inhibitor
inhibition of intracellular IGF-IR phosphorylation [8]: potent inhibitor

CCOC(=O)N1CCC(Nc2cc(Cl)cc3c(S(=O)(=O)N4CCO[C@H](COc5ccccc5)C4)c(C(N)=O)[nH]c23)CC1 [PL-225B]
inhibition of IGF-1R [3]: selectively inhibits
tumor cell apoptosis [9]: induction of tumor cell apoptosis
tumor cell proliferation [9]: inhibition of tumor cell proliferation
